Values quoted from earlier work, collected in US20050244367A1 (priority 2004, published 2005).

System: PLA2
Conditions: art-known PLA2 inhibitor classes, order of magnitude given in words

For `CCC(CCCCSc1ccc(C)cc1)c1ccc(F)cc1` (stereo not shown), the IC50 is given as “μM range”.

For `CCN(CC)CCN(Cc1ccc(-c2ccc(C(F)(F)F)cc2)cc1)C(=O)Cn1cc(Cc2ccn(C)n2)c(=O)nc1SCc1ccc(F)cc1`, the IC50 is listed as “nM or subnM range”.

For `COC1=CCC2=C(CCC3C2CC[C@@]2(C)C3CC[C@@H]2N(C)CCCN(C)C)C1` (stereo partly shown), the IC50 is given as “sub μM range”.

In the case of `CC(C)c1ccc2c(c1)CCC1C(C)(CNCCC(N)c3ccc(F)cc3)CCCC21C` (stereo not shown), the IC50 is given as “μM range”.

For `O=C(O)CC[C@@H](CSc1ccc(Cc2ccccc2)cc1)NC(=O)CCCCCCc1ccccc1`, the IC50 is listed as “sub μM range”.

In the case of `CCc1c(CC(N)=O)c2cc(OCCCP(=O)(O)O)ccc2n1Cc1ccccc1`, the IC50 is given as “sub μM range”.

For `CC(C)c1ccc2c(c1)CCC1C(C)(CNCCC(=O)c3ccc(F)cc3)CCCC21C` (stereo not shown), the IC50 is given as “μM range”.
